# According to article PMC9546217, “Exploring novel nitrofuranyl sulfonohydrazides as anti‐Leishmania and anti‐cancer agents: Synthesis, in vitro efficacy and hit identification” (Chemical Biology & Drug Design, 2022):
# Where two headings read alike, the source gives them in different places.
# How the values were obtained:
# [1] = test system: L. donovani strain 9515 amastigotes; experiment: Anti-amastigote assay (intramacrophage, THP-1 host, resazurin); format: cell-based; details: for IC50: L. donovani 9515, read-out: 9515 IC50 ± SD, Amastigote
# Procedure: (§1) The activities of synthesized compounds against the intramacrophage parasites of the three Leishmania strains were evaluated using a modified, resazurin‐based method (Jain et al., [2012]; Njanpa et al., [2021]). Suspension cultures of human acute monocytic leukemia (THP‐1) cells were maintained in RPMI‐1640 medium (Sigma Aldrich) supplemented with 10% FBS and 1% penicillin–streptomycin, at 37°C and 5% CO2 in a humidified atmosphere. Duplicate 96‐well plates (for respective anti‐amastigote and cytotoxicity assays) were seeded with 200 μl of a 2.5 × 10^5 cells/ml suspension treated with 25 ng/ml phorbol 12‐myristate 13‐acetate (PMA), followed by 48‐h incubation to promote differentiation into adherent macrophages.
# (§2) For the anti‐amastigote assay, differentiated plates were carefully washed with PBS, followed by the addition of 200 μl of stationary phase promastigotes in RPMI 1640 medium with 2% FBS. An MOI of 30:1 was used for all three Leishmania strains. The parasite‐treated plates were incubated for 24 h at 32°C (L. major) or 37°C (L. donovani) and 5% CO2 to promote infection of the macrophages. […] Blanks were represented by growth medium without cells, as well as parasite‐free THP‐1 cells. The treated plates were incubated for 72 h.
# (§3) After incubation, the plates were gently washed three times with PBS to remove any remaining extracellular parasites. The wells were then treated with 20 μl of 0.05% sodium dodecyl sulfate in PBS for 30 s to lyse the host macrophages. Lysis was terminated by adding 180 μl promastigote growth medium with 10% FBS. To initiate the resazurin assay, 10 μl of resazurin solution (0.025% in PBS) was added to all wells and the plates were incubated for 24 h at 32°C (L. major) or 37°C (L. donovani) and 5% CO2. Absorbance measurements, calculations, and IC50 determinations were performed as described for the antipromastigote assay (Supinfo S1).
# [2] = test system: L. donovani strain 1S amastigotes; experiment: as above; format: cell-based; details: for IC50: L. donovani 1S, read-out: 1S IC50 ± SD, Amastigote
# Procedure: as §1, §2, §3
# [3] = test system: L. major strain IR‐173 amastigotes; experiment: as above; format: cell-based; details: for IC50: read-out: Antileishmanial activity, IC50 ± SD, Amastigote
# Procedure: as §1, §2, §3
# in vitro = details: African green monkey
# Procedure: (§4) The assay method is available in the Supinfo S1.
# (§5) African green monkey kidney epithelial (Vero) cells (Cellonex, South Africa) were cultured and the basal cytotoxicity of the synthesized compounds with antileishmanial and/or anticancer activity was evaluated using the resazurin assay, as described in Mangwegape et al. ^4 Emetine served as the standard cytotoxic drug. Further use of reference drugs, controls, data analysis, calculations and IC50 determinations were identical to that of the antileishmanial assay.
# [4] = test system: L. major strain IR‐173 promastigotes; experiment: Antipromastigote assay (resazurin); format: cell-based; details: L. major IR‐173, read-out: Antileishmanial activity, IC50 ± SD, Promastigote
# Procedure: (§6) The antipromastigote activity of synthesized compounds was evaluated as described previously by Mangwegape et al. ([2021]) using three strains of L. donovani (1S (MHOM/SD/62/1S) and 9515 (MHOM/IN/95/9515)) and L. major (IR‐173 [MHOM/IR/−173]). The assay method is available in the Supinfo S1.
# (§7) The antipromastigote activity of synthesized compounds was evaluated using a modified, resazurin-based method of Kulshrestha et al. ^2 and Siqueira-Neto et al. ^3 and on three Leishmania strains. Leishmania donovani (strains 1S (MHOM/SD/62/1S) and 9515 (MHOM/IN/95/9515)) and L. major (strain IR-173 (MHOM/IR/-173)) promastigotes were cultured in M199 with Hank's salts and 0.68 mM L-glutamine (Sigma Aldrich) supplemented with 50 U/mL Penicillin/Streptomycin solution (Lonza), 4.2 mM sodium bicarbonate, 25 mM Hepes, 10% fetal bovine serum, 0.25% hemin, 0.1% biotin, and 10 mM adenine (Sigma Aldrich) and the pH adjusted to 7.3 – 7.4. The promastigotes were maintained at 25 °C.
# (§8) Amphothericin B (10 μM) served as the standard drug and growth medium without parasites served as the blank. The plates were incubated for 48 hours at 25 °C in humidified atmosphere. After incubation, 50 μL of resazurin solution (0.01% in PBS) was added to each well and the plates were further incubated at 25 °C in the dark for 24 hours. Absorbance was measured at 570 nm and 600 nm using the Thermofisher Scientific GO Multiscan plate reader. Data analysis was performed for each biological replicate using SkanIt 4.0 Research Edition software. Background absorbance of resazurin (600 nm) was subtracted from the absorbance values of resorufin (570 nm). The mean absorbance calculated and the percentage growth inhibition and cell viability were determined by the following equations: […]
# (§9) The IC50 and Z-score were determined for each compound’s three biological replicates using the cell viability % values and GraphPad Prism 5. The mean IC50 of the biological replicates with standard deviation (SD) served as the final IC50 of each compound.
# [5] = test system: L. donovani strain 1S promastigotes; experiment: Antipromastigote assay (resazurin); format: cell-based; details: L. donovani 1S, read-out: 1S IC50 ± SD, Promastigote
# Procedure: as §6, §7, §8, §9
# Vero cells = experiment: Basal cytotoxicity, resazurin assay; details: read-out: Cytotoxicity, IC50 ± SD, Vero; Vero cells
# Procedure: as §4, §5
# [6] = Cytotoxicity on differentiated host THP-1 macrophages, resazurin assay; format: cell-based, human; details: human, PMA-differentiated THP-1 macrophages, read-out: Cytotoxicity, IC50 ± SD, THP‐1
# Procedure: Duplicate 96‐well plates (for respective anti‐amastigote and cytotoxicity assays) were seeded with 200 μl of a 2.5 × 10^5 cells/ml suspension treated with 25 ng/ml phorbol 12‐myristate 13‐acetate (PMA), followed by 48‐h incubation to promote differentiation into adherent macrophages.
# Cytotoxicity of the compounds on the differentiated host THP-1 cells were also evaluated. As mentioned, duplicate plates of differentiated THP-1 cells were prepared during the anti-amastigote assay. These plates were incubated for 72 hours to differentiate, instead of replacing the growth medium with parasite-containing medium after 48 hours. […] Blanks were growth medium without cells. The treated plates were incubated for 72 hours, followed by the addition of 50 μL of resazurin solution (0.01% in PBS) to each well and 24-hour incubation.
# [7] = test system: L. donovani strain 9515 promastigotes; experiment: Antipromastigote assay (resazurin); format: cell-based; details: L. donovani 9515, read-out: 9515 IC50 ± SD, Promastigote
# Procedure: as §6, §7, §8, §9
# [8] = test system: Clone 15 HL‐60 promyelocytic leukemia cells; experiment: Anticancer assay (resazurin); format: cell-based, human; details: n = 3; read-out: Anticancer activity, IC50 ± SD, Clone 15 HL‐60
# Procedure: (§10) The anticancer activities of synthesized compounds were evaluated using a resazurin‐based assay (Czekanska, [2011]). Accordingly, a screening method similar to that of the cytotoxicity assay was used to screen for anticancer activity, using human melanoma (A375), promyelocytic leukemia (Clone 15 HL‐60), lung cancer (A549), and breast cancer (MCF7) cells. The culture and assay methods are provided in the Supinfo S1.
# (§11) The potential anticancer activities of synthesized compounds were screened using the resazurin assay. ^5 Breast adenocarcinoma (MCF7, ATCC® HTB-22™) and human melanoma (A375, ATCC® CRL-1619™) cells were cultured in Hyclone Dulbecco's modified Eagle’s medium with high glucose (Separations) supplemented with 10 % fetal bovine serum (FBS) (Thermofisher Scientific) and 1 % L-glutamine, penicillin-streptomycin and non-essential amino acids (Lonza). Human lung carcinoma (A549, ATCC®, CCL-185™) cells were cultured in Ham’s F12K medium supplemented with 10% FBS and 1% L-glutamine, penicillin-streptomycin and non-essential amino acids. Human promyelocytic leukemia (Clone 15 HL-60, ATCC® CRL-1946™) cells were cultured in RPMI-1640 medium (Sigma Aldrich) supplemented with 10% FBS and 1% penicillin-streptomycin. The cell lines were maintained in a humidified atmosphere at 37 °C and 5% CO2.
# (§12) For the resazurin assay, 96 well plates were prepared with 100 μL of 100 000 cells/mL MCF7 cell suspension, 100 μL of 50 000 cells/mL A375 cell suspension, 100 μL of 25 000 cells/mL A549 cell suspension, or 50 μL of 50 000 cells/mL HL-60 cell suspension. The MCF7, A375 and A549 cell plates were incubated for 24 hours to allow adherence of the cells to the plate surface, after which the growth medium is replaced with 100 μL medium containing compounds. […] The cell lines were treated with: (i) parthenolide (Sigma Aldrich) (positive control); (ii) growth medium and solvent (negative control to compensate for possible solvent effects); (iii) growth medium and experimental compound solutions. […] Blanks contained growth medium without cells. The treated plates were incubated for 48 hours.
# (§13) To initiate the resazurin assay, 50 μL of sterile-filtered resazurin sodium salt (Sigma Aldrich) solution (0.01 % in PBS) was added and the plates incubated for 2 hours (MCF7, A375 and A549 cells) or 24 hours (HL-60 cells). Absorbance was measured at 570 and 600 nm using the Thermofisher Scientific GO Multiscan plate reader. Data analysis was performed for each biological replicate using SkanIt 4.0 Research Edition software. Further data analysis, calculations and IC50 determinations were identical to that of the antileishmanial and cytotoxicity assays.
# (§14) For the final IC50 of each compound, the mean IC50 of the biological replicates were calculated with standard deviation (SD).
# A375 melanoma cells = experiment: Anticancer assay (resazurin); format: cell-based, human; details: n = 3; read-out: Anticancer activity, IC50 ± SD, A375
# Procedure: as §10, §11, §12, §13, §14
molecule,measurement,setting,value
"C[C@@H]1[C@H](O)[C@@H](C)/C=C/C=C/C=C/C=C/C=C/C=C/C=C/[C@H](O[C@@H]2O[C@H](C)[C@@H](O)[C@H](N)[C@@H]2O)C[C@@H]2O[C@](O)(C[C@@H](O)C[C@@H](O)[C@H](O)CC[C@@H](O)C[C@@H](O)CC(=O)O[C@H]1C)C[C@H](O)[C@H]2C(=O)O [AMB, Amphotericin B, reference compound]",IC50,"[1]; Leishmania donovani, THP-1",50 nM
same,IC50,"[2]; Leishmania donovani, THP-1",40 nM
same,IC50,"[3]; Leishmania major, THP-1, L. major IR‐173",30 nM
same,IC50,in vitro,57800 ± 3220 nM
same,IC50,[4]; Leishmania major,30 ± 6 nM
same,IC50,[5]; Leishmania donovani,20 nM
"CC[C@H]1CN2CCc3cc(OC)c(OC)cc3[C@@H]2C[C@@H]1C[C@H]1NCCc2cc(OC)c(OC)cc21 [EM, emetine, reference compound]",IC50,Vero cells,80 ± 9 nM
"NC(=O)N/N=C/c1ccc([N+](=O)[O-])o1 [NFZ, nitrofurazone, reference compound]",Selectivity index SI6,[1]; L. donovani 9515: IC50 THP‐1/IC50 amastigote,> 20
same,Selectivity index SI5,[1]; L. donovani 9515: IC50 Vero/IC50 amastigote,> 20
same,Specificity index SpI3,[1]; L. donovani 9515: IC50 promastigote/IC50 amastigote,0.37
same,Selectivity index SI4,[2]; L. donovani 1S: IC50 THP‐1/IC50 amastigote,> 40
same,Selectivity index SI3,[2]; L. donovani 1S: IC50 Vero/IC50 amastigote,> 40
same,Specificity index SpI2,[2]; L. donovani 1S: IC50 promastigote/IC50 amastigote,2.62
same,IC50,"[2]; Leishmania donovani, THP-1",2500 ± 400 nM
same,Specificity index SpI1,[3]; L. major IR‐173: IC50 promastigote/IC50 amastigote,0.32
same,IC50,in vitro; Vero cells (kidney epithelial),> 100000 nM
same,IC50 at 72 h,[6],> 100000 nM
same,IC50,[7]; Leishmania donovani,1850 ± 140 nM
same,IC50,[4]; Leishmania major,1850 ± 60 nM
same,IC50,[5]; Leishmania donovani,6540 ± 930 nM
"(E)-4-Fluoro-N'-([5-nitrofuran-2-yl]methylene)-(1,1'-biphenyl)-4-sulfonohydrazide [2i]",IC50,[1],> 10000 nM
same,IC50,[2],> 10000 nM
same,IC50,[3]; L. major IR‐173,> 10000 nM
same,IC50,Vero cells,29200 ± 5410 nM
same,IC50,[7],> 10000 nM
same,IC50,[4],> 10000 nM
same,IC50,[5],9380 ± 820 nM
same,IC50,[8],> 10000 nM
same,IC50,A375 melanoma cells,> 10000 nM
